Read-outs that look alike come from different tables or passages of the source.
Legend:
[1] = molecular target: T1, human topoisomerase I (Homo sapiens, UniProt P11387); settings: relative topoisomerase I inhibition levels, previously determined, six levels (0 - 5, +++++ = 5); cited from earlier work
T1 sequence (P11387 1-765): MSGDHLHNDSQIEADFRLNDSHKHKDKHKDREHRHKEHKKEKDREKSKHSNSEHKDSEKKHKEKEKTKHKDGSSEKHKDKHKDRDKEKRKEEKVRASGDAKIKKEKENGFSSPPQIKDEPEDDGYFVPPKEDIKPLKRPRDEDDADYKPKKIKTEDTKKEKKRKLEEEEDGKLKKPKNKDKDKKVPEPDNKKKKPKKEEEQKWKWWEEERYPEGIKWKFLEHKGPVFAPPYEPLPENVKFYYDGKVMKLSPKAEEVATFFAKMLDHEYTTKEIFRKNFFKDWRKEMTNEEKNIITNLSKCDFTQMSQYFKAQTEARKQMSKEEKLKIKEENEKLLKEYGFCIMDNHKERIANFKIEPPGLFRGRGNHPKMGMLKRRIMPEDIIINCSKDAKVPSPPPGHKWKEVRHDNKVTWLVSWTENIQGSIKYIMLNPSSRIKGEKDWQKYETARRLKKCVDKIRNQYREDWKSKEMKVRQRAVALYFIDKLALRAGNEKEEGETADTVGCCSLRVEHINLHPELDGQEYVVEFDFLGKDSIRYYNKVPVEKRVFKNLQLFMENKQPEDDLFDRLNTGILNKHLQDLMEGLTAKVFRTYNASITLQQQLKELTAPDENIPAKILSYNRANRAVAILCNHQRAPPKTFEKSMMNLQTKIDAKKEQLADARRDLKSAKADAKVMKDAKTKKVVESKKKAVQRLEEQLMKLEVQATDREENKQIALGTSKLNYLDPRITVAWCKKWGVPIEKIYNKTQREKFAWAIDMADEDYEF

[2] = test system: NCI-60 cancer cell lines; assay: NCI-60 cancer cell line drug screen (GI50, MGM); format: cell-based, human; settings: Homo sapiens; for GI50: read-out: Antiproliferative Activities [GI50 (μM)]
Experimental: Cancer cells were incubated with the test compounds at five concentrations ranging from 100 μM to 10 nM for 48 h. […] The approximate average of GI50 values across the entire panel of NCI-60 cancer cell lines for each compound was recorded as the MGM value.

In the case of `CNCCCn1c2c(c3ccc([N+](=O)[O-])cc3c1=O)C(=O)c1cc(OC)cnc1-2` [Compound 10], the “Top1 Inhibiton” value [1] is listed as “+++ (strong inhibition, +++, MYC expression inhibited at 0.5 to 1.0 μM)”, the GI50 ([2]; 786-0, Renal Cancer, 786-0) is listed as 0.04 µM and the GI50 ([2]; A498, Renal Cancer, A498) is listed as 0.03 µM. For the same compound, the GI50 ([2]; A549, Non-Small Cell Lung Cancer, A549/ATCC) was 0.07 µM, the GI50 ([2]; ACHN, Renal Cancer, ACHN) was 0.04 µM and the GI50 ([2]; BT-549, Breast Cancer, BT-549) was 0.37 µM. It also gave a GI50 ([2]; CAKI-1, Renal Cancer, CAKI-1) of 0.03 µM, a GI50 ([2]; CCRF-CEM, Leukemia, CCRF-CEM) of 0.04 µM and a GI50 ([2]; COLO 205, Colon Cancer, COLO 205) of 0.06 µM. It also gave a GI50 ([2]; DU-145, Prostate Cancer, DU-145) of 0.05 µM, a GI50 ([2]; EKVX, Non-Small Cell Lung Cancer, EKVX) of 0.27 µM and a GI50 ([2]; HCC 2998, Colon Cancer, HCC-2998) of 0.2 µM. For the same compound, the GI50 ([2]; HCT-15, Colon Cancer, HCT-15) was 0.12 µM, the GI50 ([2]; HCT-116, Colon Cancer, HCT-116) was 0.03 µM and the GI50 ([2]; HL-60, Leukemia, HL-60(TB)) was 0.04 µM. For the same compound, the GI50 ([2]; HOP-92, Non-Small Cell Lung Cancer, HOP-92) was 0.24 µM, the GI50 ([2]; HT-29, Colon Cancer, HT29) was 0.06 µM and the GI50 ([2]; Hs-578T, Breast Cancer, HS 578T) was 1.17 µM. It also gave a GI50 ([2]; IGROV-1, Ovarian Cancer, IGROV1) of 0.21 µM, a GI50 ([2]; K562, Leukemia, K-562) of 0.04 µM and a GI50 ([2]; KM12, Colon Cancer, KM12) of 0.16 µM. The GI50 ([2]; LOX IMVI, Melanoma, LOX IMVI) was 0.03 µM, the GI50 ([2]; Leukemia, SR) was 0.01 µM and the GI50 ([2]; MCF7, Breast Cancer, MCF7) was 0.01 µM. The GI50 ([2]; MDA-MB-231, Breast Cancer, MDA-MB-231/ATCC) was 0.27 µM, the GI50 ([2]; MDA-MB-435, Melanoma, MDA-MB-435) was 0.15 µM and the GI50 ([2]; MDA-MB-468, Breast Cancer, MDA-MB-468) was 0.03 µM. The GI50 ([2]; MOLT-4, Leukemia, MOLT-4) was 0.03 µM, the GI50 ([2]; Malme-3M, Melanoma, MALME-3M) was 0.18 µM and the GI50 ([2]; Melanoma, M14) was 0.04 µM. It also gave a GI50 ([2]; NCI-H23, Non-Small Cell Lung Cancer, NCI-H23) of 0.04 µM, a GI50 ([2]; NCI-H226, Non-Small Cell Lung Cancer, NCI-H226) of 0.09 µM and a GI50 ([2]; NCI-H322M, Non-Small Cell Lung Cancer, NCI-H322M) of 0.16 µM. The GI50 ([2]; NCI-H460, Non-Small Cell Lung Cancer, NCI-H460) was 0.02 µM, the GI50 ([2]; NCI-H522, Non-Small Cell Lung Cancer, NCI-H522) was 0.08 µM and the GI50 ([2]; OVCAR-3, Ovarian Cancer, OVCAR-3) was 0.17 µM. It also gave a GI50 ([2]; OVCAR-4, Ovarian Cancer, OVCAR-4) of 0.17 µM, a GI50 ([2]; OVCAR-5, Ovarian Cancer, OVCAR-5) of 0.14 µM and a GI50 ([2]; OVCAR-8, Ovarian Cancer, OVCAR-8) of 0.09 µM. It also gave a GI50 ([2]; Ovarian Cancer, NCl/ADR-RES) of 0.06 µM, a GI50 ([2]; Prostate Cancer, PC-3) of 0.13 µM and a GI50 ([2]; RPMI-8226, Leukemia, RPMI-8226) of 0.08 µM. It also gave a GI50 ([2]; RXF 393, Renal Cancer, RXF 393) of 0.07 µM, a GI50 ([2]; Renal Cancer, U0-31) of 0.03 µM and a GI50 ([2]; SF-268, CNS Cancer, SF-268) of 0.07 µM. For the same compound, the GI50 ([2]; SF-295, CNS Cancer, SF-295) was 0.03 µM, the GI50 ([2]; SF-539, CNS Cancer, SF-539) was 0.05 µM and the GI50 ([2]; SK-MEL-2, Melanoma, SK-MEL-2) was 0.35 µM. It also gave a GI50 ([2]; SK-MEL-5, Melanoma, SK-MEL-5) of 0.11 µM, a GI50 ([2]; SK-MEL-28, Melanoma, SK-MEL-28) of 0.39 µM and a GI50 ([2]; SK-OV-3, Ovarian Cancer, SK-OV-3) of 0.06 µM. For the same compound, the GI50 ([2]; SN12C, Renal Cancer, SN12C) was 0.05 µM, the GI50 ([2]; SNB-19, CNS Cancer, SNB-19) was 0.04 µM and the GI50 ([2]; SNB-75, CNS Cancer, SNB-75) was 0.13 µM. The GI50 ([2]; SW-620, Colon Cancer, SW-620) was 0.03 µM, the GI50 ([2]; T47D, Breast Cancer, T-47D) was 0.03 µM and the GI50 ([2]; TK-10, Renal Cancer, TK-10) was 0.32 µM. The GI50 ([2]; U-251, CNS Cancer, U251) was 0.04 µM, the GI50 ([2]; UACC-257, Melanoma, UACC-257) was 0.18 µM and the mean GI50 across NCI-60 panel (MGM) ([2]; average of GI50 values across the entire panel of NCI-60 cancer cell lines) was 74 nM.
